pIC50: −log10 of the molar value. Where two headings read alike, the source gives them in different places.

What is called inhibition is the drop in the measured response relative to a control, in per cent. Read a high inhibition as a strong effect. As usually defined, the pIC50 is the negative decadic logarithm of the IC50, by convention in mol/L. For orientation: ED50 means the dose at which the effect has come halfway, by size or by number of responders. The low end stands for greater potency, the high end for weaker potency.

One test has as its system TNFα. The test can be described thus: Inhibition of TNFα in LPS-stimulated macrophage cell cultures (ELISA). The following applies: LPS-stimulated macrophages. The format is cell-based. The source says:
(§1) Evaluation of the therapeutic effects of the novel PRS-211 compounds has now been carried out in a series of experimental systems to support the utility of these drugs as neuroprotectants, anti-inflammatory agents and anti-oxidative agents. These effects have been evaluated both in vitro and in vivo, and have been corroborated utilizing the following systems: • (a) Binding to the NMDA receptor linked channel: Non competitive antagonists of NMDA, the primary example of which is the compound MK-801, bind to a site within the NMDA receptor channel thus preventing the activation of the receptor-channel complex and the consequent neurotoxicity. The ability of various compounds to compete with the binding of tritium labeled MK-801 to brain membranes is considered a measure of their potency as NMDA non-competitive antagonists. • (b) Inhibition of prostaglandin production: The inhibitory effect of the new derivatives of Dexanabinol on prostaglandin synthesis is evaluated in macrophage cell cultures following LPS exposure to induce the inflammatory response. These assays are an indication of the anti-inflammatory activity of the individual analogs. • (c) Inhibition of Tumor Necrosis Factor Alpha: Specific aspects of the inflammatory response cascade are mediated by the cytokine TNFα. Inhibition of TNFα production and/or inhibition of TNFα release by the new analogs are assayed in macrophage cell cultures activated with LPS. This serves as another indication of the general anti-inflammatory potential of the novel compounds. • (d) Nitric Oxide Assay: As one aspect of the anti-oxidative potential of the novel analogs they were tested for their ability to inhibit the enzyme nitric oxide synthase (NOS). This assay can also serve as another indication of the anti-inflammatory cascade, as well as the anti-oxidative mechanisms. • (e) Ear Edema model: The anti-inflammatory activity of the new analogs is screened using an ear edema model in mice. This test system utilizes Croton oil or Arachidonic acid as inflammation inducers. The ability of the test compounds to prevent or diminish the inflammatory response to these stimulants is indicative of their systemic anti-inflammatory capability. • (f) Improved clinical outcome after closed head injury in rats: Severe head injury is associated with high mortality and severe neurological impairment. Animals subjected to head trauma in a controlled fashion serve as models in which to test drugs of therapeutic potential. Test compounds can be evaluated both for improved clinical outcome and for reduction of edema induced by closed head injury. The ability of compounds to reduce the severity of neurological symptoms and to reduce brain edema is considered a measure of their potency in reducing brain damage. • (g) Transient Middle cerebral artery occlusion (MCAo): The middle cerebral artery is the cerebral blood vessel most susceptible to stroke in humans. In animals, coagulation, permanent ligation or permanent placement of an occluding thread in the artery produces a permanent focal stroke affecting the MCA territory. Transient ligation or occlusion results in transient focal stroke. Both transient and permanent focal strokes result in varying degrees of edema and infarction in the affected brain regions. The ability of compounds to reduce the volumes of edema and infarction is considered a measure of their potential as anti-stroke treatment. • (h) Optic Nerve Crush: Application of mechanical pressure to the rat optical nerve results in crush injury of the axons, which is accompanied by immediate changes in oxidative metabolism and delayed axonal death and blindness. […]
(ELISA stands for enzyme-linked immunosorbent assay.)

Another test deals with NMDA receptor. In words: Radioligand binding: displacement of [3H]MK-801 from rat forebrain membranes. The following applies: for NMDA receptor binding / affinity: MK-801 binding to membranes.
Description: as §1

The subject of test [1] is Nitric Oxide Synthase (NOS). In words: Inhibition of nitric oxide synthase (nitrite fluorimetric assay, LPS-stimulated macrophage cultures). The class given is cell-based. The following applies: LPS-stimulated macrophages.
Description: as §1

In another test the test system is PGE2. In words: Inhibition of prostaglandin synthesis (PGE2) in LPS-stimulated macrophage cell cultures. The class given is cell-based. The following applies: LPS-stimulated macrophages.
Description: as §1

For test [2], the system named is transient middle cerebral artery occlusion in rats. The test can be described thus: Transient middle cerebral artery occlusion (MCAo), infarct size evaluation. The format is in vivo. From the text:
Experimental design. The design was a randomized one, performed in a masked fashion as to whether drug or vehicle was being given, and an attempt was made to generate approximately equal numbers of drug- and vehicle-treated animals.
• a. Male rats (8 /treatment group) 320-380 gr. (Harlan Israel). • b. Halothane (Rhone Poulenc France) • c. Pentobarbitone (Pental Veterinary, CTS Israel). • d. Poly - L - Lysine (Sigma, USA). • e. Silk suture material 3-0 and 4-0. • f. Nylon (Polyamid) suture material 3-0. Four cm pieces were cut and positioned in a solution of 1% Poly - L - Lysine for 1 minute and dried in an oven (60 ° C) for 60 minutes. The tip of each piece was rounded under a flame. • g. Saline (Teva Medical). • h. Blank cremophor ethanol cosolvent (Pharmos). • i. Dexanabinol in cremophor ethanol cosolvent 50 mg/ml. (Both Dexanabinol and its vehicle were diluted in saline prior to drug administration. • j. Analogs PRS-211,092, PRS-211,095, PRS-211,128 PRS-211,132 and PRS-211,220 in cremophor ethanol cosolvent, 50 mg/ml. • k. The analogs were diluted in saline prior to drug administration.
• a. Surgical details of the MCAo method used for testing dexanabinol analogs, are presented in Belayev, et al., (Belayev, Busto, Weizhao, and Ginsberg, Stroke 26:2313-2319, 1995) which is incorporated herein in its entirety by reference. • b. Two hours after the start of MCAO, the animals were reanesthetized with halothane, the neck wound was re-opened and the nylon thread pulled out of the Internal carotid artery (ICA). The skin wound was then closed with 3-0 silk suture material and the animals allowed to recover from the anesthesia. • c. Three sets of animals were tested. In the first test immediately (2+0 hours) before thread removal the animals were injected IV with either analogs PRS-211,095, PRS-211,128, PRS-211,132, or Dexanabinol (PRS-211,007) each at a dosage of 5 mg/kg. One group of animals was treated with 5ml/kg vehicle alone. In another group, the animals subjected to "sham" operation, the suture was passed into the ICA, as described above, but immediately withdrawn. In the second set dexanabinol, PRS-211,092, PRS-211,095 and PRS-211,220 were used, at 2+0 hours. In the third set dexanabinol, PRS-211,092, PRS-211,095 and PRS-211,220 were administered 1 hour after thread removal (2+1 hours). Laser Doppler Flow (LDF) determined the success of MCAo - a drop of more then 50% in cerebral blood flow was considered as a sign of successful MCAo. Although LDF was a helpful corroborative sign, clinical outcome remained the final inclusion/exclusion criterion, since, with the exception of the PRS-211,220 staircase study, LDF was introduced only after initiation of the study.
A detailed investigation of neurological performance was carried out on the first, third and the 7th day after the MCAo. Two parameters were examined: posture and the flexion reflex (based on Nokon and Chuang, NeuroReport 9, 1998: 2081-2084). Animals were scored according to their performance:
One week after the ischemic insult, animals were euthanized with pentobarbitone 100 mg/kg IP. The animals were perfused through the heart with heparinized 4% formaldehyde solution in PBS (pH 7.4). Brains were then removed, and kept in the same solution before preparation for histological evaluation of the brain infarct volume.

The next test has as its system ear edema model in mice. In words: Ear edema model. The class given is in vivo. The following applies: Mus musculus, Croton oil (CO) as inducer, IP.
Description: as §1

Where [3] appears, read: displacement of [3H]MK-801, rat forebrain membranes, read-out: NMDA BINDING IC50.

`CCCCCCC(C)(C)c1cc(O)c2c(c1)OC(C)(C)[C@H]1CC=C(CN3CCC(C)CC3)C[C@H]21` (single isomer, unassigned) [211,251-000]: the inhibition at 10 µM in the test on TNFα turned out to be 0%; in test [1] it was 37%; in the test on PGE2 it was 91%. Moreover, the “NMDA receptor binding / affinity” value with NMDA receptor is on record as “do not exhibit substantial NMDA receptor binding”. In addition, the pIC50 at NMDA receptor (setting [3]) is under 4.00.
Taken in the same sequence, the figures for `CCCCCCC(C)(C)c1cc(O)c2c(c1)OC(C)(C)[C@H]1CC=C(CN3CCC(N4CCCCC4)CC3)C[C@H]21` (single isomer, unassigned) [211,257-000] were 10%, 39%, 88%, “do not exhibit substantial NMDA receptor binding” and under 4.00.
For `CCCCCCC(C)(C)c1cc(O)c2c(c1)OC(C)(C)[C@H]1CC=C(CN3CCCC3)C[C@H]21` (stereo in doubt) [211,128-000], the inhibition at 10 µM is 48% in the test on TNFα, 27% in test [1] and 84% with PGE2. Further, the “NMDA receptor binding / affinity” value in the test with NMDA receptor was “no detectable affinity”. Further, the pIC50 on NMDA receptor ([3H]MK-801 binding, text to Figure 2, read-out: mean IC50) was under 4.70; at NMDA receptor (setting [3]), under 4.70. Also, the “function, reduction of mortality and brain morphometry” value in test [2] was “inactive”. Further, the Mortality rate entry in test [2] (5 mg/kg IV at 2+0 hours) was “around 25%”. The ED50 in the test on ear edema model in mice was determined as 23 µmol/kg.
For `CCCCCCC(C)(C)c1cc(O)c2c(c1)OC(C)(C)[C@H]1CC=C(CN3CCCCC3)C[C@H]21` (stereo in doubt) [211,159-000], the figures for the inhibition at 10 µM (with TNFα; in test [1]; in the test with PGE2) were 33%, 27% and 87%, respectively. Also, at NMDA receptor (setting [3]), the pIC50 is under 4.70.
With `CCCCCCC(C)(C)c1cc(O)c2c(c1)OC(C)(C)[C@H]1CC=C(CC#N)C[C@H]21` [211,006-000], the values for the inhibition at 10 µM (in the test with TNFα; in test [1]; in the test on PGE2) were 46%, 19% and 41%, respectively. Moreover, the negative logarithm of the IC50 (pIC50) on NMDA receptor (setting [3]) was 5.10. Further, in the test with ear edema model in mice, the 50% effective dose (ED50) was 104 µmol/kg.
Taken in the same sequence, the figures for `CCCCCCC(C)(C)c1cc(O)c2c(c1)OC(C)(C)[C@H]1CC=C(C[S+](C)[O-])C[C@H]21` (some centres unmarked) [211,041-000] were 23%, 72%, 56%, 5.22 and 39 µmol/kg.
With `CCCCCCC(C)(C)c1cc(O)c2c(c1)OC(C)(C)[C@H]1CC=C(CNC(C)=O)C[C@H]21` [211,044-000], the inhibition at 10 µM in the test with TNFα turned out to be 0%; in the test on PGE2, 24%. Also, at NMDA receptor (setting [3]), the negative logarithm of the IC50 (pIC50) is 5.22.
In the case of `CC(C)(C)c1cc(O)c2c(c1)OC(C)(C)[C@H]1CC=C(CO)C[C@H]21` [211,047-000], the inhibition at 10 µM with TNFα is 0%; with PGE2, 28%. For the same compound, the pIC50 on NMDA receptor (setting [3]) is 4.00.
With `CCCCCCC(C)(C)c1cc(O)c2c(c1)OC(C)(C)[C@H]1CC=C(Cn3cncn3)C[C@H]21` [211,102-000], on NMDA receptor (setting [3]), the pIC50 was 5.60.
Turning to `CCCCCCC(C)(C)c1cc(O)c2c(c1)OC(C)(C)[C@H]1CC=C(Cn3cnnc3)C[C@H]21` [211,103-000], at NMDA receptor (setting [3]), the pIC50 was 5.52.
Turning to `CCCCCCC(C)(C)c1cc(O)c2c(c1)OC(C)(C)[C@H]1CC=C(Cc3cccs3)C[C@H]21` [211,118-000], the pIC50 on NMDA receptor (setting [3]) is 4.49.
For `CCCCCCC(C)(C)c1cc(O)c2c(c1)OC(C)(C)[C@H]1CC=C(Cc3ccccc3)C[C@H]21` [211,119-000], the pIC50 on NMDA receptor (setting [3]) was 4.21. For the same compound, in the test with PGE2, 10 µM produced 14% inhibition.
In the case of `CCCCCCC(C)(C)c1cc(O)c2c(c1)OC(C)(C)[C@H]1CC=C(CN3CCNCC3)C[C@H]21` [211,133-000], on NMDA receptor (setting [3]), the pIC50 is under 4.00.
The same measure, in the same setting: to `CCCCCCC(C)(C)c1cc(O)c2c(c1)OC(C)(C)[C@H]1CC=C(CN3CCNC(C)C3)C[C@H]21` (some centres unmarked) [211,134-000] belongs under 4.00.
Turning to `CCCCCCC(C)(C)c1cc(O)c2c(c1)OC(C)(C)[C@H]1CC=C(CN3CC=CCC3)C[C@H]21` [211,145-000], the inhibition at 10 µM was 15% with TNFα, 60% in test [1] and 63% with PGE2. For the same compound, the pIC50 at NMDA receptor (setting [3]) was 4.89.
Taken in the same sequence, the figures for `CCCCCCC(C)(C)c1cc(O)c2c(c1)OC(C)(C)[C@H]1CC=C(COCC(O)CO)C[C@H]21` (some centres unmarked) [211,211-000] were 18%, 0%, 83% and 5.34.
Take `CCCCCCC(C)(C)c1cc(O)c2c(c1)OC(C)(C)[C@H]1CC=C(CN3CC=CC3)C[C@H]21` [211,212-000]: the inhibition at 10 µM amounted to 14% in the test with TNFα, 0% in test [1] and 96% in the test with PGE2. The pIC50 on NMDA receptor (setting [3]) is 5.12.
On to `CCCCCCC(C)(C)c1cc(O)c2c(c1)OC(C)(C)[C@H]1CC=C(CN3CCC(N4CCCC4)CC3)C[C@H]21` [211,253-000], for which the figures for the inhibition at 10 µM (in the test with TNFα; in test [1]; in the test on PGE2) were 0%, 27% and 92%, respectively. Further, in the test with NMDA receptor, the “NMDA receptor binding / affinity” value is given as “do not exhibit substantial NMDA receptor binding”. The negative logarithm of the IC50 (pIC50) at NMDA receptor (setting [3]) was under 4.00.
As to `CCCCCCC(C)(C)c1cc(O)c2c(c1)OC(C)(C)[C@H]1CC=C(CN(Cc3ccccc3)c3ccccc3)C[C@H]21` [211,255-000], the values for the inhibition at 10 µM (in the test on TNFα; in test [1]; with PGE2) were 0%, 7% and 94%, respectively. Further, the “NMDA receptor binding / affinity” value in the test with NMDA receptor is on record as “do not exhibit substantial NMDA receptor binding”. Moreover, at NMDA receptor (setting [3]), the pIC50 is under 4.00.

Values taken from patent EP1785417A2, “Novel non-psychotropic cannabinoids” (priority 2000, dated 2001).
